Measured values: patent US8658791B2, “2-substituted-6-amino-5-alkyl, alkenyl or alkynyl-4-pyrimidinecarboxylic acids and 6-substituted-4-amino-3-alkyl, alkenyl or alkynyl picolinic acids and their use as herbicides” (Dow AgroSciences, LLC, priority 2007, dated 2014)

Assays:
[1] = test system: wild poinsettia (Euphorbia heterophylla); assay: General preemergence herbicidal activity, EPHHL; type: in vivo; conditions: 140 g ai/ha, applied to soil surface, visual score after 20-22 days, 0 = no injury, 100 = complete kill or no emergence, read-out: Pre-emergent Weed Control EPHHL
Excerpt: (§1) Seeds of the desired test plant species were planted in a soil matrix prepared by mixing a loam soil (43 percent silt, 19 percent clay, and 38 percent sand, with a pH of about 8.1 and an organic matter content of about 1.5 percent) and sand in a 70 to 30 ratio. The soil matrix was contained in plastic pots with a surface area of 127 square centimeters. When required to ensure good germination and healthy plants, a fungicide treatment and/or other chemical or physical treatment was applied. A weighed amount, determined by the highest rate to be tested, of each test compound was placed in a 25 mL glass vial and was dissolved in 6 mL of a 97:3 v/v (volume/volume) mixture of acetone and DMSO to obtain concentrated stock solutions. […] The stock solutions obtained were diluted with 18 mL of a 0.1% v/v aqueous solution of Tween® 20 surfactant to obtain spray solutions containing the highest application rate. Additional application rates were obtained by serial dilution of 12 mL of the high rate solution into a solution containing 3 mL of 97:3 v/v mixture of acetone and DMSO and 9 mL of the 0.1% v/v aqueous solution of Tween® 20 surfactant to obtain 1/2X, 1/4X, 1/8X and 1/16X rates of the high rate. Compound requirements are based upon a 12 mL application volume at a rate of 187 L/ha. Formulated compounds were applied to the soil surface with an overhead Mandel track sprayer equipped with a […] nozzles calibrated to deliver 187 L/ha over an application area of 0.503 square meters at a spray height of 18 inches (43 cm) above the soil surface. Control pots were sprayed in the same manner with the solvent blank. The treated pots and control pots were placed in a greenhouse maintained with an approximate 15 hour photoperiod and temperatures of about 23-29° C. during the day and 22-28° C. during the night. Nutrients and water were added on a regular basis and supplemental lighting was provided with overhead metal halide 1000-Watt lamps as necessary. The water was added by top-irrigation. After 20-22 days, the condition of the test plants that germinated and grew as compared with that of the untreated plants that emerged and grew was determined visually and scored on a scale of 0 to 100 percent where 0 corresponds to no injury and 100 corresponds to complete kill or no emergence.

[2] = test system: barnyardgrass (Echinochloa crus-galli); assay: General preemergence herbicidal activity, ECHCG; type: in vivo; conditions: 140 g ai/ha, applied to soil surface, visual score after 20-22 days, 0 = no injury, 100 = complete kill or no emergence, read-out: Pre-emergent Weed Control ECHCG
Excerpt: as §1

rice (Oryza sativa) [3] = assay: General postemergence herbicidal activity, ORYSA; type: in vivo; conditions: Oryza sativa, post-emergence, 336 h, 140 g ai/ha, postemergence spray, visual score after 14 days, 0 = no injury, 100 = complete kill; read-out: Post-emergent Weed Control ORYSA
Procedure, shortened: (§2)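 Test species were grown 7-21 days in potting mix under greenhouse conditions, then treated postemergence by track sprayer delivering 187 L/ha. Rates comprised the high rate and twofold dilutions down to 1/16X. After 14 days with sub-irrigation, damage is scored from 0 (no injury) to 100 (complete kill).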

rice (Oryza sativa) [4] = assay: General preemergence herbicidal activity, ORYSA; type: in vivo; conditions: 140 g ai/ha, applied to soil surface, visual score after 20-22 days, 0 = no injury, 100 = complete kill or no emergence, read-out: Pre-emergent Weed Control ORYSA
Excerpt: as §1

[5] = test system: barnyardgrass (Echinochloa crus-galli); assay: General postemergence herbicidal activity, ECHCG; type: in vivo; conditions: Echinochloa crus-galli, post-emergence, 336 h, 140 g ai/ha, postemergence spray, visual score after 14 days, 0 = no injury, 100 = complete kill; read-out: Post-emergent Weed Control ECHCG
Procedure, shortened: as §2

[6] = test system: lambsquarter (Chenopodium album); assay: General postemergence herbicidal activity, CHEAL; type: in vivo; conditions: Chenopodium album, post-emergence, 336 h; 140 g ai/ha, postemergence spray, visual score after 14 days, 0 = no injury, 100 = complete kill; read-out: Post-emergent Weed Control CHEAL
Procedure, shortened: as §2

[7] = test system: velvetleaf (Abutilon theophrasti); assay: General postemergence herbicidal activity, ABUTH; type: in vivo; conditions: Abutilon theophrasti, post-emergence, 336 h, 140 g ai/ha, postemergence spray, visual score after 14 days, 0 = no injury, 100 = complete kill; read-out: Post-emergent Weed Control ABUTH
Procedure, shortened: as §2

[8] = test system: lambsquarter (Chenopodium album); assay: General preemergence herbicidal activity, CHEAL; type: in vivo; conditions: 140 g ai/ha, applied to soil surface, visual score after 20-22 days, 0 = no injury, 100 = complete kill or no emergence, read-out: Pre-emergent Weed Control CHEAL
Excerpt: as §1

[9] = test system: velvetleaf (Abutilon theophrasti); assay: General preemergence herbicidal activity, ABUTH; type: in vivo; conditions: 140 g ai/ha, applied to soil surface, visual score after 20-22 days, 0 = no injury, 100 = complete kill or no emergence, read-out: Pre-emergent Weed Control ABUTH
Excerpt: as §1

[10] = test system: wild poinsettia (Euphorbia heterophylla); assay: General postemergence herbicidal activity, EPHHL; type: in vivo; conditions: Euphorbia heterophylla, post-emergence, 336 h; 140 g ai/ha, postemergence spray, visual score after 14 days, 0 = no injury, 100 = complete kill; read-out: Post-emergent Weed Control EPHHL
Procedure, shortened: as §2

COc1c(Cl)ccc(-c2nc(N)c(C)c(C(=O)O)n2)c1F [Compound 53, 6-amino-2-(4-chloro-2-fluoro-3-methoxyphenyl)-5-methylpyrimidine-4-carboxylic acid]
pest or weed control at 140 g/ha [1]: 100% | melting point: 201 to 203 °C | pest or weed control at 140 g/ha [2]: 80% | plant injury at 140 g/ha (rice (Oryza sativa) [3]): 0% | plant injury at 140 g/ha (rice (Oryza sativa) [4]): 0% | pest or weed control at 140 g/ha [5]: 90% | pest or weed control at 140 g/ha [6]: 100% | pest or weed control at 140 g/ha [7]: 90% | pest or weed control at 140 g/ha [8]: 100% | pest or weed control at 140 g/ha [9]: 100% | pest or weed control at 140 g/ha [10]: 100%
